Laboratory results published in patent US7141553B2, “A3AR agonists for the treatment of inflammatory arthritis” (Can-Fite Biopharma Ltd. Israel, priority 2002, dated 2006).

Assays:
[1] = test system: adjuvant induced arthritis; experiment: Adjuvant arthritis model in Lewis rats; assay type: in vivo, rat
[2] = test system: collagen-induced arthritis; conditions: 0.5 mg/kg a day; cited from earlier work

Structure (SMILES): CNC(=O)[C@H]1O[C@@H](n2cnc3c(NCc4cccc(I)c4)ncnc32)[C@H](O)[C@@H]1O [IB-MECA, N6-(3-iodobenzyl)-adenosine-5′-N-methyl-uronamide]
- inflammation as assessed by the inflammation intensity score ([1]; 1 μg/day PO, FIG. 1B): significant reduction
- histological picture of the joint ([1]; 10 μg a day, FIG. 3B, untreated shows destruction of synovial tissue and bone): appeared completely normal
- inflammation as assessed by the inflammation intensity score ([1]; 10 μg/kg PO a day, treatment from day 7 after disease induction, FIG. 1A): effective in abolishing almost completely the inflammation
- appearance of paws ([1]; 10 μg/kg a day PO, untreated rat paws extremely swollen and red): normal appearing paws
- inflammation as assessed by the inflammation intensity score ([1]; 100 μg/kg PO a day, treatment from day 7 after disease induction, FIG. 1A): effective in abolishing almost completely the inflammation
- severity of joint inflammation [2]: reduced the severity of joint inflammation
